We go through 9 compounds from ChEMBL document CHEMBL4330135, “Discovery of 2-phenylthiazole-4-carboxylic acid, a novel and potent scaffold as xanthine oxidase inhibitors” (Bioorg Med Chem Lett, 2019).

Assay [1] concerns the target T1, Xanthine dehydrogenase/oxidase (Bos taurus, UniProt P80457). Put plainly: Inhibition of bovine milk xanthine oxidase using xanthine as substrate preincubated for 3 mins followed by substrate addition and measured at 1 min for 10 mins.
Assay [2] has as its system Mus musculus. Kind of assay: Hypouricemic effect in ICR mouse model of potassium oxonate and hypoxanthine-induced acute hyperuricemia assessed as reduction in serum uric acids level at 20 mg/kg, po dosed 1 hr after potassium oxonate and hypoxanthine challenge and measured after 1 hr. The format is functional, organism-based.
Assay [3] addresses T1, Xanthine dehydrogenase/oxidase. Kind of assay: Inhibition of bovine milk xanthine oxidase at 10 uM using xanthine as substrate preincubated for 3 mins followed by substrate addition and measured at 1 min for 10 mins relative to control. Particulars: cattle.
Assay [4] deals with Mus musculus. Put plainly: Hypouricemic effect in ICR mouse model of potassium oxonate and hypoxanthine-induced acute hyperuricemia assessed as reduction in serum uric acids level at 5 mg/kg, po dosed 1 hr after potassium oxonate and hypoxanthine challenge and measured after 1 hr. The format is functional, organism-based.

pIC50: −log10 of the molar value. Activity calls are given as the source filed them. The calls are words filed in the database; no cut-off is given here.

T1 sequence (P80457 whole entry): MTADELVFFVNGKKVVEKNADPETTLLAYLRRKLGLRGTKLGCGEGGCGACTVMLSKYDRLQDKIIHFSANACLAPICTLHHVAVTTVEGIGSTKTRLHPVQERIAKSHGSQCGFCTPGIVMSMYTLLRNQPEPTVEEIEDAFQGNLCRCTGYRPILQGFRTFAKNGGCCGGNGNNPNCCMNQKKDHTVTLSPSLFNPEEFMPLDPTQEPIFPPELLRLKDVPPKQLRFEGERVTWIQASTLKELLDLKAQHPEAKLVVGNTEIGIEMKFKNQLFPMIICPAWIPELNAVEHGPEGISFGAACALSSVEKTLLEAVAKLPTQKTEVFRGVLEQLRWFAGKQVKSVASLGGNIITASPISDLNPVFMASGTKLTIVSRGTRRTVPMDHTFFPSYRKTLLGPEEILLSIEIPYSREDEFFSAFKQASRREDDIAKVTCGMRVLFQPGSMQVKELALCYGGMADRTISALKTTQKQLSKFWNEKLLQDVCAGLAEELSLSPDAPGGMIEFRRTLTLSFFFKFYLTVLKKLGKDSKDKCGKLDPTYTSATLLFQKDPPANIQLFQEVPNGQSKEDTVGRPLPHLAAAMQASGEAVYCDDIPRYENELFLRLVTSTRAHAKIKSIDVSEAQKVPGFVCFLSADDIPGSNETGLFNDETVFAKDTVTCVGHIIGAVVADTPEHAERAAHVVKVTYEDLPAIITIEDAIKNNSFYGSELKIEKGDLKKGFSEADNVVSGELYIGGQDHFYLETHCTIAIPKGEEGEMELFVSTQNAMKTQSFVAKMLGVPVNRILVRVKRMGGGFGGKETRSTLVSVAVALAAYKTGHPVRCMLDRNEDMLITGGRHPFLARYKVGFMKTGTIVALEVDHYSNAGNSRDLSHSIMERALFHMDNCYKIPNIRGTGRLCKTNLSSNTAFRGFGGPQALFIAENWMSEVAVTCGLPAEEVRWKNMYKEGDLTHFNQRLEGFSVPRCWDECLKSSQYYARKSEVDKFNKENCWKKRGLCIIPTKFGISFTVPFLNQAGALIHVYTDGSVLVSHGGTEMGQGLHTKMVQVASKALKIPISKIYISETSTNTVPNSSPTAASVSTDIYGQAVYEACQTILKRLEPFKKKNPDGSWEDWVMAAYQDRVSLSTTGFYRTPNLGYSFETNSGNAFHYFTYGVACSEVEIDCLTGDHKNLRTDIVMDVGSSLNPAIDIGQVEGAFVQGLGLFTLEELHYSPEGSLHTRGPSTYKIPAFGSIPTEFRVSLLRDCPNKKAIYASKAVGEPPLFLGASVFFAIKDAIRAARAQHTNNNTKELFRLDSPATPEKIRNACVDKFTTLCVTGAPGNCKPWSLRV

The term pIC50 denotes −log10 of the IC50, conventionally taken in molar units. The low end stands for a large IC50, the high end for a small IC50. `CC(C)COc1ccc(-c2nc(C(=O)O)cs2)cc1[N+](=O)[O-]` gave a pIC50 in assay [1] of 7.31. The outcome in the assay with Mus musculus [2] was Active.
Usually inhibition stands for the percentage by which the read-out fell short of the control. Higher therefore signals strong suppression. Consider `O=C(O)c1cc(-c2ccccc2)on1`, for which 10 µM produced 4.2% inhibition in assay [3].
In assay [3], `Cc1cc(C(=O)O)nn1-c1ccccc1` came in with an inhibition at 10 µM of 13.9%.
`Cc1nc(-c2ccccc2)sc1C(=O)O`: the inhibition at 10 µM in assay [3] turned out to be 37.6%.
Same read-out and setting: next, `O=C(O)c1csc(-c2ccccc2)n1`: 32.8%.
On to `Cc1nc(-c2ccc(OCC(C)C)c(C#N)c2)sc1C(=O)O` [FEBUXOSTAT], for which the result in the assay on Mus musculus [4] was Active. In addition, in assay [3], the inhibition at 10 µM was 98.5%.
Compound `Cc1nc(-c2ccccc2)oc1C(=O)O` displayed an inhibition at 10 µM in assay [3] of 12.5%.
On the same count and under the same terms, next, `O=C(O)c1nc(-c2ccccc2)cs1`: 18.6%.
`Cc1nc(-c2ccc(OCC(C)C)c([N+](=O)[O-])c2)sc1C(=O)O` gave a negative-log IC50 (pIC50) in assay [1] of 7.48. Also, the outcome with Mus musculus [2] was Active.
